Measured values: PubChem BioAssay (NCI)
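Dose response: 5 concentrations. Exposure: 48 h. Format: 96-well plates. Endpoint: linear interpolation; highest concentration if not reached. TGI: concentration producing complete growth inhibition.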

Experiments:
Test in all cases: NCI-60 cell line screen, 48 h
[1] = tested on: A549 NSCLC
[2] = tested on: DU-145 prostate
[3] = tested on: MALME-3M melanoma
[4] = tested on: RXF 393 renal
[5] = tested on: SK-MEL-28 melanoma
[6] = tested on: IGROV1 ovarian
[7] = tested on: SF-268 CNS
[8] = tested on: LOX IMVI melanoma
[9] = tested on: EKVX NSCLC
[10] = tested on: TK-10 renal
[11] = tested on: NCI/ADR-RES ovarian
[12] = tested on: MDA-MB-435
[13] = tested on: SK-OV-3 ovarian
[14] = tested on: OVCAR-3 ovarian
[15] = tested on: NCI-H226 lung
[16] = tested on: OVCAR-5 ovarian
[17] = tested on: MOLT-4 leukemia
[18] = tested on: CCRF-CEM leukemia
[19] = tested on: RPMI-8226 leukemia
[20] = tested on: SNB-19 CNS
[21] = tested on: SF-295 CNS
[22] = tested on: SR leukemia
[23] = tested on: SK-MEL-5 melanoma
[24] = tested on: HS 578T breast
[25] = tested on: SNB-75 CNS
[26] = tested on: 786-0 renal
[27] = tested on: HOP-92 NSCLC
[28] = tested on: MCF7 breast
[29] = tested on: K-562 leukemia
[30] = tested on: UACC-62 melanoma
[31] = tested on: HL-60(TB) leukemia
[32] = tested on: ACHN renal
[33] = tested on: T-47D breast
[34] = tested on: SF-539 CNS
[35] = tested on: M14 melanoma
[36] = tested on: NCI-H23 lung
[37] = tested on: SN12C renal
[38] = tested on: NCI-H522 lung
[39] = tested on: CAKI-1 renal
[40] = tested on: OVCAR-8 ovarian
[41] = tested on: HCT-15 colon
[42] = tested on: COLO 205 colon
[43] = tested on: MDA-MB-231 breast
[44] = tested on: OVCAR-4 ovarian
[45] = tested on: A498 renal
[46] = tested on: KM12 colon
[47] = tested on: U251 CNS
[48] = tested on: UO-31 renal
[49] = tested on: MDA-N
[50] = tested on: HT29 colon
[51] = tested on: UACC-257 melanoma
[52] = tested on: SW-620 colon
[53] = tested on: NCI-H460 lung
[54] = tested on: HCT-116 colon
[55] = tested on: HOP-62 NSCLC
[56] = tested on: PC-3 prostate
[57] = tested on: HCC-2998 colon
[58] = tested on: BT-549 breast

Structure (SMILES): N[C@@H](Cc1ccc2oc3cc(=O)c4ccccc4c-3nc2c1)C(=O)O
- TGI [1]: > 100 µM
- TGI [2]: 34.7 µM
- TGI [3]: 11.2 µM
- TGI [4]: > 100 µM
- TGI [5]: > 100 µM
- TGI [6]: > 100 µM
- TGI [7]: > 100 µM
- TGI [8]: > 100 µM
- TGI [9]: > 100 µM
- TGI [10]: > 100 µM
- TGI [11]: > 100 µM
- TGI [12]: 31.7 µM
- TGI [13]: > 100 µM
- TGI [14]: > 100 µM
- TGI [15]: > 100 µM
- TGI [16]: > 100 µM
- TGI [17]: > 100 µM
- TGI [18]: > 100 µM
- TGI [19]: > 100 µM
- TGI [20]: 77.6 µM
- TGI [21]: 64 µM
- TGI [22]: 60.4 µM
- TGI [23]: 24.1 µM
- TGI [24]: > 100 µM
- TGI [25]: > 100 µM
- TGI [26]: > 100 µM
- TGI [27]: > 100 µM
- TGI [28]: 6.79 µM
- TGI [29]: > 100 µM
- TGI [30]: 57.9 µM
- TGI [31]: > 100 µM
- TGI [32]: > 100 µM
- TGI [33]: > 100 µM
- TGI [34]: > 100 µM
- TGI [35]: 40.9 µM
- TGI [36]: 51.3 µM
- TGI [37]: > 100 µM
- TGI [38]: > 100 µM
- TGI [39]: > 100 µM
- TGI [40]: > 100 µM
- TGI [41]: > 100 µM
- TGI [42]: 38.9 µM
- TGI [43]: > 100 µM
- TGI [44]: > 100 µM
- TGI [45]: > 100 µM
- TGI [46]: > 100 µM
- TGI [47]: > 100 µM
- TGI [48]: > 100 µM
- TGI [49]: 38.2 µM
- TGI [50]: 96.8 µM
- TGI [51]: 42.3 µM
- TGI [52]: > 100 µM
- TGI [53]: > 100 µM
- TGI [54]: > 100 µM
- TGI [55]: 48.2 µM

Structure (SMILES): O=C1CN(c2ccccc2)C(=O)CN1CCN1CC(=O)N(c2ccccc2)CC1=O
- TGI [1]: > 100 µM
- TGI [56]: > 100 µM
- TGI [2]: > 100 µM
- TGI [3]: > 100 µM
- TGI [4]: > 100 µM
- TGI [5]: > 100 µM
- TGI [6]: > 100 µM
- TGI [7]: > 100 µM
- TGI [9]: > 100 µM
- TGI [10]: > 100 µM
- TGI [12]: > 100 µM
- TGI [13]: > 100 µM
- TGI [14]: > 100 µM
- TGI [16]: > 100 µM
- TGI [19]: > 100 µM
- TGI [20]: > 100 µM
- TGI [21]: > 100 µM
- TGI [22]: > 100 µM
- TGI [23]: > 100 µM
- TGI [24]: > 100 µM
- TGI [25]: > 100 µM
- TGI [26]: > 100 µM
- TGI [27]: > 100 µM
- TGI [28]: > 100 µM
- TGI [30]: > 100 µM
- TGI [31]: > 100 µM
- TGI [32]: > 100 µM
- TGI [34]: > 100 µM
- TGI [35]: > 100 µM
- TGI [36]: > 100 µM
- TGI [57]: > 100 µM
- TGI [37]: > 100 µM
- TGI [38]: > 100 µM
- TGI [39]: > 100 µM
- TGI [40]: > 100 µM
- TGI [41]: > 100 µM
- TGI [42]: > 100 µM
- TGI [58]: > 100 µM
- TGI [44]: > 100 µM
- TGI [45]: > 100 µM
- TGI [46]: > 100 µM
- TGI [47]: > 100 µM
- TGI [48]: > 100 µM
- TGI [49]: > 100 µM
- TGI [50]: > 100 µM
- TGI [51]: > 100 µM
- TGI [52]: > 100 µM
- TGI [53]: > 100 µM
- TGI [54]: > 100 µM
- TGI [55]: > 100 µM
